This is an account of results in ChEMBL document CHEMBL1201862, “PubChem BioAssay data set” (2004).

Active and inactive are the calls of the source. Cut-off read from the data, not from the text of the source, for most assays here: actives have a measured EC50 and inactives only a lower limit.

Assay [1] in a line: NIH3T3 cell viability loss – ATP luminescence, mouse fibroblasts, counter-screen, dose response (AID 2010).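 Note: cells exposed to compound for about 90 hours before reading.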 Format: functional, cell-based.
The nature of assay [2]: Trypanosoma cruzi growth suppression in host cells – NIH3T3 host cells, beta-gal luminescence, confirmation (AID 2044).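 Note: intracellular parasites grown in NIH/3T3 mouse fibroblasts as host cells; luminescent beta-galactosidase reporter signal from transgenic T. cruzi replicating inside host cells; inhibitors lower the luminescence signal.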 Type of assay: functional, cell-based.
In assay [3] the target is Cytochrome P450 2D6 (Homo sapiens, UniProt P10635).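 Note: CYP2D6 member of a cytochrome P450 panel assay.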
Cytochrome P450 2D6, sequence (P10635 whole entry): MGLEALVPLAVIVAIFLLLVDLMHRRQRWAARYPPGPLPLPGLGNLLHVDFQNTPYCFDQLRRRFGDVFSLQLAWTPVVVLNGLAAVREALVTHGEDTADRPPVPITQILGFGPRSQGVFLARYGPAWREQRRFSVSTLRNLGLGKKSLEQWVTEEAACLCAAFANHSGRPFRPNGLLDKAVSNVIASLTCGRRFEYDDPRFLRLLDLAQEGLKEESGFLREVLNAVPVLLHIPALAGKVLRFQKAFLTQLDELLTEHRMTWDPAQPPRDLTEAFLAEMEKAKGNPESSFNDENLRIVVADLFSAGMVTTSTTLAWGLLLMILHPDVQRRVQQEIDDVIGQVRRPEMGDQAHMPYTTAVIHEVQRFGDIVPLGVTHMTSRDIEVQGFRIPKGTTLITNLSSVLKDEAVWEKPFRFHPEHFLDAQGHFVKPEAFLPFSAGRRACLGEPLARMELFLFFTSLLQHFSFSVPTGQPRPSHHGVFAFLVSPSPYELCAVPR
The target of assay [4] is T1, Streptokinase A (Streptococcus pyogenes serotype M1, UniProt P10520).
T1 sequence (P10520 whole entry): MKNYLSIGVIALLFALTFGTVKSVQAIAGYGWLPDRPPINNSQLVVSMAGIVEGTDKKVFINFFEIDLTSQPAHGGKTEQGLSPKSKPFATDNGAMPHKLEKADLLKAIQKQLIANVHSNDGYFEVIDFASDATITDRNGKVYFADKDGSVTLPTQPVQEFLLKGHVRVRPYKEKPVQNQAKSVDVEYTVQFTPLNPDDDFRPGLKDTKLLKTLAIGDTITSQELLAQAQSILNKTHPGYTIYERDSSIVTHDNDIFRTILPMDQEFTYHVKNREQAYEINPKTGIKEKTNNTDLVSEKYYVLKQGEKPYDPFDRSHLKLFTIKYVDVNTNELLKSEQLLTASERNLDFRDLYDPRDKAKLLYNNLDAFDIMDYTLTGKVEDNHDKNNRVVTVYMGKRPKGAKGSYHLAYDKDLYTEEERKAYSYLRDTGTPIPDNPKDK
In words: viability-normalized secreted streptokinase activity reduction – plasminogen activation absorbance, OD405, dose response (AID 1914).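 Note: secreted streptokinase activity via plasminogen activation per viability signal from cell pellet.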 Type of assay: functional, Streptococcus pyogenes M1 GAS.

Assay [5] has as its system Streptococcus sp. 'group A'. The assay can be described thus: Streptococcus pyogenes SK(-)GAS viability under kanamycin – luminescence, BacTiterGlo, confirmation, counter-screen for streptokinase expression inhibitor project, dose response (AID 1900). Format: functional, organism-based.
The test system of assay [6] is Streptococcus. The assay can be described thus: GAS UMAA2166 growth inhibition – luminescence, BacTiterGlo, counter-screen for streptokinase expression inhibitor project, dose response (AID 1915).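 Note: potency for reduction of bacterial viability or growth.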 Type of assay: functional, organism-based.
The target of assay [7] is T2, Corticotropin-releasing factor receptor 2/Corticotropin-releasing factor-binding protein (Homo sapiens, UniProt P24387+Q13324).
T2 sequence (Q13324 whole entry): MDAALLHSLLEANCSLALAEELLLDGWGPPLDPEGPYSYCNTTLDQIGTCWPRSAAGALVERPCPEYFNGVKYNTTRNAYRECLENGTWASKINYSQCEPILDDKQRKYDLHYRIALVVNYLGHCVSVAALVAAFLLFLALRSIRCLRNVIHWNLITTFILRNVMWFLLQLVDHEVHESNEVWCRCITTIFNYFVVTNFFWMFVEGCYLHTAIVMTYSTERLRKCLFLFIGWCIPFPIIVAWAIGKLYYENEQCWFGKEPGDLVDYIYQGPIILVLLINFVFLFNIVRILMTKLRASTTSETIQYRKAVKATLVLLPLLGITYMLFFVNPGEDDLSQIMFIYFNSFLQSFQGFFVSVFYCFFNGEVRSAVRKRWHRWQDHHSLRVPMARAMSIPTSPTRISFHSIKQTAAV
T2 sequence (P24387 whole entry): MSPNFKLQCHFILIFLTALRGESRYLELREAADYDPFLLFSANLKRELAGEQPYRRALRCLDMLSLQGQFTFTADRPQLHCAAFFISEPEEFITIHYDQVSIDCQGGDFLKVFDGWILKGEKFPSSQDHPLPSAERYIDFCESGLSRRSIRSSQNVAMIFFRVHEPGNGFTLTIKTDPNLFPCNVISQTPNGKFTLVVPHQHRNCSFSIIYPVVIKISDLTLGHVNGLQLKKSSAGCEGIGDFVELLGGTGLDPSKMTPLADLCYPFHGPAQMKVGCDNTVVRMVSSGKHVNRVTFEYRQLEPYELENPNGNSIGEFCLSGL
In words: activators of CRF receptor 2 with binding protein – uHTS hits, confirmation (AID 602473). Type of assay: functional. As to conditions: read-out: EC50_Mean.

For the molecule `Cc1ccc(-c2nn(C(C)(C)C)c3ncnc(NS(=O)(=O)c4ccc([N+](=O)[O-])cc4)c23)cc1`, the figures for the EC50 in assay [1] and in assay [2] were > 60 µM (not active) and 2.33 µM (active), respectively.

For the molecule `Cc1ccc(NC(=O)c2c(C(F)(F)F)nn(C)c2SCc2ccc(Cl)cc2)cc1C`, the values for the EC50 in assay [1] and in assay [2] were > 60 µM (not active) and 2.84 µM (active), respectively. With `CN1CCc2cc3c(cc2[C@@H]1[C@@H]1C(=O)Oc2c1ccc1c2OCO1)OCO3`, the AC50 in assay [3] was 39.8 µM (inconclusive). Consider `COc1ccc(C2CC3=Nc4ncnn4C(c4ccccc4C)C3=C(O)C2)c(OC)c1` (stereo not given), for which the EC50 in assay [1] was > 60 µM (not active); in assay [2], 1.56 µM (active). In the case of `Cc1cccc(Nc2nc(N)nc(CN3CCN(c4ccc(F)cc4)CC3)n2)c1`, the EC50 in assay [4] was > 150 µM (not active); in assay [5], 12.1 µM (active); in assay [6], 95.3 µM (active). In the case of `CNc1c([N+](=O)[O-])nn(-c2ccc3c(c2)OCCO3)[n+]1[O-]`, the EC50 was 20.1 µM (active) in assay [1] and 0.68 µM (active) in assay [2]. Consider `CSc1ccccc1C(=O)C1CCCN(Cc2cnn(-c3ccccc3)c2)C1` (stereo not given), for which the values for the EC50 in assay [1] and in assay [2] were > 60 µM (not active) and 0.245 µM (active), respectively. Turning to `O=C(NCC1COc2ccccc2O1)c1ccc(NC(=O)C(c2ccccc2)c2ccccc2)cc1` (stereo not given), the EC50 was > 60 µM (inconclusive) in assay [1] and 1.88 µM (active) in assay [2]. On to `CC(C)(C)CC(=O)N1CCC(c2nc(O)c3nnn(Cc4c(F)cccc4Cl)c3n2)CC1`, for which the EC50 in assay [4] was > 150 µM (not active); in assay [6] it was 16.7 µM (active).

For `O=C(Nc1nc(-c2ccccc2)cs1)c1cccc([N+](=O)[O-])c1`, the results for the EC50 in assay [1] and in assay [2] were > 60 µM (not active) and 2.4 µM (active), respectively. Regarding `COc1cccc(-c2nc(NCc3ccccc3)c3ccccc3n2)c1`, the half-maximal activity concentration (AC50) in assay [3] is 20 µM (inconclusive). On to `CC1CCCN(CCOCCSc2ccccc2)C1` (stereo not given), for which the EC50 in assay [1] is > 60 µM (not active); in assay [2], 0.297 µM (active).

On to `c1ccc(C(c2nnnn2C2CCCC2)N2CCN(c3nc4ccccc4s3)CC2)cc1` (stereo not given), for which the EC50 was > 60 µM (not active) in assay [1] and 1.95 µM (active) in assay [2].

Take `Cc1ccccc1S(=O)(=O)Cc1ccc(C(=O)NCCN2CCN(Cc3ccccc3)CC2)o1`: the EC50 in assay [1] was > 60 µM (not active); in assay [2], 1.4 µM (active). For `O=C(c1cnccn1)N1CCC2(CCCN(c3ncccn3)C2)CC1`, in assay [3], the AC50 was 15.8 µM (inconclusive). Turning to `Cc1ccc(N2C(=O)NC(=O)/C(=C\c3ccoc3)C2=O)cc1`, the EC50 in assay [7] was > 53 µM (inactive). Same read-out and setting: then `Cc1noc(/C=C/c2ccc(-c3ccccc3Cl)o2)c1[N+](=O)[O-]`, with 5.11 µM (active); and `COc1ccc(O)c(C(=O)c2cc(C#N)c(=O)n(-c3c(C)n(C)n(-c4ccccc4)c3=O)c2)c1`, with 6.39 µM (active). Take `CCOC(=O)c1ccc(NC(S)=NN2CCN(C)CC2)cc1`: the EC50 in assay [1] was > 60 µM (inconclusive); in assay [2] it was 1.08 µM (active). For the molecule `Fc1ccc(-c2cc(C(F)(F)F)nc(N3CCCCC3)n2)cc1`, the EC50 in assay [4] was 6.14 µM (active); in assay [5], 10.3 µM (active); in assay [6], 13.1 µM (active). For `C/C=C/c1ccc(OCC(O)CN(C)Cc2ccc(SC)cc2)c(OC)c1` (stereo not given), the EC50 in assay [1] is > 60 µM (not active); in assay [2], 0.388 µM (active). In the case of `CCN(CC)CCn1c(SCC(=O)NCCC2=CCCCC2)nc2c(sc3ccccc32)c1=O`, the EC50 in assay [1] is 15.7 µM (active); in assay [2], 2 µM (active).

As for `N#Cc1ccc(CSc2nnc(-c3ccncc3)n2CCc2ccccc2)cc1`, the EC50 was > 60 µM (not active) in assay [1] and 0.772 µM (active) in assay [2]. With `Cc1cc(S(=O)(=O)NCc2ccccc2)ccc1OCC(=O)NCC1CCCO1` (stereo not given), the EC50 in assay [7] is > 53 µM (inactive). `COc1ccc(CN2CCN(Cc3cccc4nonc34)CC2CCO)c(C)c1C` (stereo not given): the EC50 is > 60 µM (not active) in assay [1] and 0.403 µM (active) in assay [2]. In the same order, the values of `COc1cccc(N/C(SCc2cccc([N+](=O)[O-])c2)=C(/C#N)C(N)=O)c1` are > 60 µM (not active) and 4.17 µM (active). Turning to `COc1ccc(NC(=O)N2CCCC3(CCN(S(=O)(=O)c4ccccc4)CC3)C2)cc1`, the concentration at half-maximal activity (AC50) in assay [3] was 15.8 µM (inconclusive).

With `O=C(Nc1cccc2ncccc12)c1ccc2c(c1)OCCO2`, the EC50 in assay [7] was > 53 µM (inactive). Regarding `CCOC(=O)Cn1c(CN(Cc2ccccc2)Cc2ccccc2)nc2c1c(=O)[nH]c(=O)n2C`, the AC50 in assay [3] is 31.6 µM (inconclusive). In the case of `CCOc1ccc(NS(=O)(=O)c2ccc(NC(=O)[C@@H]3CCCC[C@@H]3C(=O)O)cc2)cc1`, the EC50 in assay [7] was > 53 µM (inactive).

As for `Cc1c(C(=O)Nc2ccc(S(=O)(=O)N(C)C3CCN(C)CC3)cc2)oc2c(Cl)cccc12`, the figures for the EC50 in assay [1] and in assay [2] were > 30 µM (not active) and 0.85 µM (active), respectively. For `CCCC[C@@H]1C[C@H]1C(NC(=O)c1ccco1)c1ccc(Cl)cc1` (stereo not given in full), in assay [3], the AC50 was 39.8 µM (inconclusive). Consider `Cc1cccc(N2CCN(C(=O)c3ccc(Cl)c(S(=O)(=O)N4CCc5ccccc5C4)c3)CC2)c1C`, for which the EC50 in assay [1] was > 60 µM (inconclusive); in assay [2], 1.13 µM (active). For `COc1ccc(/C=C(/C(=O)c2ccc(Cl)cc2Cl)n2cncn2)cc1` the same measures were 31.4 µM (active) and 0.423 µM (active). Regarding `Cn1c2ccccc2c(=O)c2cc(C#Cc3ccc(N)cc3)ccc21`, the EC50 was 0.713 µM (active) in assay [5] and 3.34 µM (active) in assay [6]. On to `Cc1cc(NC(=O)CCCn2cnc([N+](=O)[O-])n2)no1`, for which the values for the EC50 in assay [1] and in assay [2] were > 60 µM (inconclusive) and 0.797 µM (active), respectively. For `O=C(CSc1nnc(NC(=O)c2ccccc2)s1)NCC1CCCO1` (stereo not given), the EC50 in assay [4], in assay [5] and in assay [6] was > 150 µM (not active) throughout. In the case of `CC(C)Oc1cccc(C(=O)C2CCCN(Cc3cnc(N4CCOCC4)s3)C2)c1` (stereo not given), the EC50 in assay [1] is > 30 µM (not active); in assay [2], 0.146 µM (active). In the case of `CN(C)CCCN(C(=O)c1cc2ccccc2oc1=O)c1nc2c(F)cccc2s1`, the results for the EC50 in assay [1] and in assay [2] were > 60 µM (not active) and 0.118 µM (active), respectively. Turning to `Cc1cc(S(=O)(=O)NCCC2=CCCCC2)ccc1Br`, the results for the EC50 in assay [4], in assay [5] and in assay [6] were 10.4 µM (active), 9.73 µM (active) and > 150 µM (not active), respectively.

As to `CN(CC[C@@H](Oc1ccc(-c2ccccc2)cc1)c1ccc(F)cc1)CC(=O)O`, the AC50 in assay [3] was 31.6 µM (inconclusive). `CC1=C(C)CC2(C(=O)NC(=S)NC2=O)C(C)C1` (stereo not given): in assay [7], the EC50 is > 53 µM (inactive). As to `CCOc1ccc(N=C(N)Nc2nc(C)cc(C)n2)cc1`, the EC50 in assay [7] was 6.95 µM (active). Take `COc1ccc(/C=c2\s/c(=C/C(=O)c3ccc(C)cc3)[nH]c2=O)cc1OC`: the EC50 in assay [4] is > 150 µM (not active); in assay [5] it was 13.2 µM (active); in assay [6], > 150 µM (not active); in assay [7], 13.4 µM (active). Take `O=C(CNc1cccc2ccccc12)N/N=C/c1ccc[nH]1`: the EC50 in assay [4], in assay [5] and in assay [6] was > 150 µM (not active) each time. For the molecule `Cc1ccc(N/N=C/C=C/c2ccco2)cc1`, the EC50 was > 30 µM (not active) in assay [1] and 3.31 µM (active) in assay [2]. For `Cc1noc(C)c1-c1ccc2ncnc(NCc3cccnc3)c2c1`, the AC50 in assay [3] is 12.6 µM (inconclusive).
